Data from US9174942B2, “IDO inhibitors” (NewLink Genetics Corporation, priority 2008, dated 2015).
Structures can show the parent of a compound that is named as a salt.

What follows are compounds tested against T1, purified human IDO protein (Homo sapiens, UniProt P14902, E119G/P110S) (assay: Enzymatic IDO assay (kynurenine formation, absorbance at 480 nm)). Conditions: recombinant human IDO, 200 μM L-tryptophan, pH 6.5; reported in ranges.
T1 construct: 6-Histidine tag (C); made in house; host or cells: E. coli M15(pREP4) transformed with pQE70-hIDO
Format: biochemical
Procedure: The inhibitors were initially diluted in DMSO at 100 mM and were diluted in potassium phosphate 50 mM, added to the reaction mixture at final concentrations raging from 1 mM to 5 nM and preincubated with the enzyme for 5 min at 25° C. The reaction was started by addition of L-tryptophan to 200 μM and incubated 15 min at 37° C. The reaction was stopped by addition of 0.5 vol of 30% trichloroacetic acid and incubated 30 min at 60° C. to hydrolyze N-formylkynurenine to kynurenine. The reaction was centrifuged at 3400 g for 5 min to remove precipitated protein and the supernatant was reacted with 2% (w/v) of p-dimethylaminobenzaldehyde in acetic acid. The reaction was incubated 10 min at 25° C. and read at 480 nm in a spectrophotometer. […] Nonlinear regressions and determination of the IC50 values were performed using the GraphPad Prism 4 software.

T1 sequence (P14902 whole entry P110S/E119G): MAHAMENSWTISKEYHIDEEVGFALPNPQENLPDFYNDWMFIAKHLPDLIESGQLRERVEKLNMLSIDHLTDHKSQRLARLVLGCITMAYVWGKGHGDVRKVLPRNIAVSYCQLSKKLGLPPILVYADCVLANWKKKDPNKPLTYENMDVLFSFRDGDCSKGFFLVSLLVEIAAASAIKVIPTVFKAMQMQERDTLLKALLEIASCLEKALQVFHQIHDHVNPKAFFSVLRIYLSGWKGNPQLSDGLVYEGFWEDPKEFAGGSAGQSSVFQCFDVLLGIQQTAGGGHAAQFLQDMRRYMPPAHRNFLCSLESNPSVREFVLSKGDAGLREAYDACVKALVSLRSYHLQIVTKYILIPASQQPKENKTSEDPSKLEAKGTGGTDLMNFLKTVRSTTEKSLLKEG

Row | SMILES | IC50 [µM]
1 | CSc1ccccc1-c1c[nH]cn1 [Compound 1, 5-(2-(methylthio)phenyl)-1H-imidazole] | 20 to 100
2 | CC(C)(C)CCOc1cccc(O)c1-c1cnc[nH]1 [Compound 13, 3-(3,3-dimethylbutoxy)-2-(1H-imidazol-5-yl) phenol hydrochloride] | < 20
3 | Clc1ccc(COc2ccccc2-c2cnc[nH]2)cc1 [Compound 14, 5-(2-(4-chlorobenzyloxy)phenyl)-1H-imidazole] | < 20
4 | Clc1ccccc1CCOc1ccccc1-c1c[nH]cn1 [Compound 15, 4-(2-(2-chlorophenethoxy)phenyl)-1H-imidazole] | < 20
5 | CC(C)(CCOc1ccccc1-c1c[nH]cn1)CCOc1ccccc1-c1cnc[nH]1 [Compound 18, 5,5′-(2,2′-(3,3-dimethylpentane-1,5-diyl)bis(oxy)bis(2,1-phenylene))bis(1H-imidazole)] | < 20
6 | Oc1ccc(O)c(-c2c[nH]cn2)c1 [Compound 21, 2-(1H-imidazol-4-yl)benzene-1,4-diol] | < 20
7 | Sc1ccccc1-c1c[nH]cn1 [Compound 23, 2-(1H-imidazol-5-yl) benzenethiol] | < 20
8 | CC(C)(C)CCOc1c(Br)cccc1-c1c[nH]cn1 [Compound 26, 4-(3-bromo-2-(3,3-dimethylbutoxy)phenyl)-1H-imidazole] | < 20
9 | Brc1cccc(-c2cnc[nH]2)c1 [Compound 27, 5-(3-bromophenyl)-1H-imidazole] | < 20
10 | Clc1cccc(COc2ccccc2-c2cnc[nH]2)c1 [Compound 29, 5-(2-(3-chlorobenzyloxy)phenyl)-1H-imidazole] | < 20
11 | O=C(NCc1ccccc1-c1c[nH]cn1)c1ccccc1Cl [Compound 30, N-(2-(1H-imidazol-4-yl)benzyl)-2-chlorobenzamide] | < 20
12 | CC(C)(C)COc1ccccc1-c1c[nH]cn1 [Compound 31, 4-(2-(neopentyloxy)phenyl)-1H-imidazole] | < 20
13 | CC(C)(C)CCn1cncc1-c1ccccc1 [Compound 32, 1-(3,3-dimethylbutyl)-5-phenyl-1H-imidazole] | < 20
14 | Clc1cccc(CCOc2ccccc2-c2c[nH]cn2)c1 [Compound 33, 4-(2-(3-chlorophenethoxy)phenyl)-1H-imidazole] | < 20
15 | CC(=O)Nc1ccc(CCOc2ccccc2-c2c[nH]cn2)cc1 [Compound 34, N-(4-(2-(2-(1H-imidazol-4-yl)phenoxy)ethyl)phenyl) acetamide] | < 20
16 | Oc1c(Br)cccc1-c1cnc[nH]1 [Compound 35, 2-bromo-6-(1H-imidazol-5-yl)phenol] | < 20
17 | Oc1ccc(F)cc1-c1cc[nH]n1 [Compound 36, 4-fluoro-2-(1H-pyrazol-3-yl)phenol] | < 20
18 | Cc1ccccc1COc1ccccc1-c1c[nH]cn1 [Compound 37, 4-(2-(2-methylbenzyloxy)phenyl)-1H-imidazole] | < 20
19 | CNC(=O)CCC(C)(C)CCOc1ccccc1-c1c[nH]cn1 [Compound 38, 6-(2-(1H-imidazol-4-yl)phenoxy)-N,4,4-trimethylhexanamide] | < 20
20 | CC(=O)NC1CCC(=CCOc2ccccc2-c2c[nH]cn2)CC1 (stereo not shown) [Compound 39, N-(4-(2-(2-(1H-imidazol-4-yl)phenoxy)ethylidene)cyclohexyl)acetamide] | < 20

Row | SMILES | IC50 [µM]
21 | CC(=O)Nc1cccc(CCOc2ccccc2-c2c[nH]cn2)c1 [Compound 40, N-(3-(2-(2-(1H-imidazol-4-yl)phenoxy)ethyl)phenyl) acetamide] | < 20
22 | COc1cccc(O)c1-c1c[nH]cn1 [Compound 41, 2-(1H-imidazol-4-yl)-3-methoxyphenol] | < 20
23 | Oc1ccccc1-c1cc[nH]n1 [Compound 43, 2-(1H-pyrazol-3-yl)phenol] | < 20
24 | CNC(=O)c1ccc(CCOc2ccccc2-c2c[nH]cn2)cc1 [Compound 45, 4-(2-(2-(1H-imidazol-4-yl)phenoxy)ethyl)-N-methylbenzamide] | < 20
25 | NS(=O)(=O)c1ccc(COc2ccccc2-c2c[nH]cn2)cc1 [Compound 46, 4-((2-(1H-imidazol-4-yl)phenoxy)methyl) benzenesulfonamide] | < 20
26 | Cc1cccc(COc2ccccc2-c2cnc[nH]2)c1 [Compound 48, 5-(2-(3-methylbenzyloxy)phenyl)-1H-imidazole] | < 20
27 | Clc1ccc(COc2ccc(Br)cc2-c2c[nH]cn2)cc1 [Compound 49, 4-(5-bromo-2-(4-chlorobenzyloxy)phenyl)-1H-imidazole] | < 20
28 | CNC(=O)c1cccc(CCOc2ccccc2-c2c[nH]cn2)c1 [Compound 50, 3-(2-(2-(1H-imidazol-4-yl)phenoxy)ethyl)-N-methylbenzamide] | < 20
29 | Oc1cccc(Cn2cncc2-c2ccccc2)c1 [Compound 51, 3-((5-phenyl-1H-imidazol-1-yl)methyl)phenol] | < 20
30 | Clc1ccccc1Cn1cncc1-c1ccccc1 [Compound 52, 1-(2-chlorobenzyl)-5-phenyl-1H-imidazole] | < 20
31 | CC(=O)NCCC(C)(C)CCOc1ccccc1-c1c[nH]cn1 [Compound 53] | < 20
32 | Clc1ccc(Cn2cncc2-c2ccccc2)cc1 [Compound 54, 1-(4-chlorobenzyl)-5-phenyl-1H-imidazole] | 20 to 100
33 | N#Cc1ccc(COc2ccccc2-c2c[nH]cn2)cc1 [Compound 55, 4-((2-(1H-imidazol-4-yl)phenoxy)methy)benzonitrile] | 20 to 100
34 | CNC(=O)Cc1cccc(COc2ccccc2-c2c[nH]cn2)c1 [Compound 57, 2-(3-((2-(1H-imidazol-4-yl)phenoxy)methyl)phenyl)-N-methylacetamide] | 20 to 100
35 | Fc1cc(F)cc(-c2c[nH]cn2)c1 [Compound 59, 4-(3,5-difluorophenyl)-1H-imidazole] | 20 to 100
36 | Clc1ccc(COc2c(Br)cccc2-c2c[nH]cn2)cc1 [Compound 60, 4-(3-bromo-2-(4-chlorobenzyloxy)phenyl)-1H-imidazole] | 20 to 100
37 | Clc1ccc(CCOc2ccccc2-c2c[nH]cn2)cc1 [Compound 61, 4-(2-(4-chlorophenethoxy)phenyl)-1H-imidazole] | 20 to 100
38 | Clc1ccc(CNc2ccccc2-c2c[nH]cn2)cc1 [Compound 62, N-(4-chlorobenzyl)-2-(1H-imidazol-4-yl)aniline] | 20 to 100
39 | Oc1cc(Cl)ccc1-c1cnc[nH]1 [Compound 63, 5-chloro-2-(1H-imidazol-5-yl)phenol] | 20 to 100
40 | c1ccc(CCCn2cncc2-c2ccccc2)cc1 [Compound 64, 5-phenyl-1-(3-phenylpropyl)-1H-imidazole] | 20 to 100

Row | SMILES | IC50 [µM]
41 | Oc1ccccc1Cn1cncc1-c1ccccc1 [Compound 65, 2-((5-phenyl-1H-imidazol-1-yl)methyl)phenol] | 20 to 100
42 | Cc1ccc(COc2ccccc2-c2c[nH]cn2)cc1 [Compound 66, 4-(2-(4-methylbenzyloxy)phenyl)-1H-imidazole] | 20 to 100
43 | COc1ccc(Cn2cncc2-c2ccccc2)cc1 [Compound 68, 1-(4-methoxybenzyl)-5-phenyl-1H-imidazole] | 20 to 100
44 | N#Cc1cccc(Cn2cncc2-c2ccccc2)c1 [Compound 69, 3-((5-phenyl-1H-imidazol-1-yl)methyl)benzonitrile] | 20 to 100
45 | Brc1ccc(-c2c[nH]cn2)cc1 [Compound 70, 5-(4-bromophenyl)-1H-imidazole] | 20 to 100
46 | O=[N+]([O-])c1ccccc1Cn1cncc1-c1ccccc1 [Compound 71, 1-(2-nitrobenzyl)-5-phenyl-1H-imidazole] | 20 to 100
47 | Cc1ccc(Cn2cncc2-c2ccccc2)cc1 [Compound 72, 1-(4-methylbenzyl)-5-phenyl-1H-imidazole] | 20 to 100
48 | Oc1cccc(OCc2ccc(Cl)cc2)c1-c1cnc[nH]1 [Compound 73, 3-(4-chlorobenzyloxy)-2-(1H-imidazol-5-yl)phenol] | 20 to 100
49 | N#Cc1cccc(COc2ccccc2-c2c[nH]cn2)c1 [Compound 74, 3-((2-(1H-imidazol-4-yl)phenoxy)methyl)benzonitrile] | 20 to 100
50 | Clc1ccccc1COc1ccccc1-c1c[nH]cn1 [Compound 75, 4-(2-(2-chlorobenzyloxy)phenyl)-1H-imidazole] | 20 to 100
51 | c1ccc(-c2c[nH]cn2)c(OCC2CCCNC2)c1 (stereo not shown) [Compound 76, 3-((2-(1H-imidazol-4-yl)phenoxy)methyl)piperidine] | 20 to 100
52 | Cc1ccccc1Cn1cncc1-c1ccccc1 [Compound 77, 1-(2-methylbenzyl)-5-phenyl-1H-imidazole] | 20 to 100
53 | OCc1ccccc1-c1c[nH]cn1 [Compound 78, (2-(1H-imidazol-4-yl)phenyl)methanol] | 20 to 100
54 | COC(=O)CCC(C)(C)CCOc1ccccc1-c1c[nH]cn1 [Compound 79, methyl 6-(2-(1H-imidazol-4-yl)phenoxy)-4,4-dimethylhexanoate] | 20 to 100
55 | CCOC(=O)c1ccccc1-c1c[nH]cn1 [Compound 80, ethyl 2-(1H-imidazol-4-yl)benzoate] | 20 to 100
56 | c1ccc(CCn2cncc2-c2ccccc2)cc1 [Compound 81, 1-phenethyl-5-phenyl-1H-imidazole] | 20 to 100
57 | CC(C)(CCOc1ccccc1-c1c[nH]cn1)CCC(=O)O [Compound 83, 6-(2-(1H-imidazol-4-yl)phenoxy)-4,4-dimethylhexanoic acid hydrochloride] | 20 to 100
58 | CS(=O)(=O)N1CCC(COc2ccccc2-c2c[nH]cn2)CC1 [Compound 84, 4-((2-(1H-imidazol-4-yl)phenoxy)methyl)-1-(methylsulfonyl)piperidine] | 20 to 100
